# Source: US10968181B2, “NRF2 activator” (BIOGEN MA INC., priority 2016, dated 2021)
# Experiments:
# human astrocytes [1] = test: Glutathione assay in cultured human astrocytes; assay type: cell-based; conditions: 20-hr exposure, FIG. 2
# Procedure: (§1) Human astrocytes from ScienCell (cat #1820) were grown in astrocyte medium per supplier's instructions. Cells cultured for no more than two passages were plated in poly-D-lysine coated 96-well plates at 40,000 cells per well for gene transcription experiments and 20,000 cell per well for glutathione and cytoprotection assays.
# Intracellular glutathione was measured after a 20-hr exposure to test compounds by a two-step process. First, cells were lysed and luciferin quantitatively generated from substrate, catalyzed by glutathione-S-transferase in the presence of analyte glutathione. Then luciferin was assayed using stabilized luciferase to produce a luminescent signal proportional to the concentration of glutathione (Promega GSH-Glo, cat #V6912).
# Nrf2 target genes [2] = test: Nrf2 target gene expression (qRT-PCR) in tissues of wild type and Nrf2−/− mice; assay type: in vivo
# Procedure: All procedures involving animals were performed in accordance with standards established in the Guide for the Care and Use of Laboratory Animals as adopted by the U.S. National Institutes of Health. All animal protocols were approved by the Biogen Institutional Animal Care and Use Committee, which is accredited by the Association for Assessment and Accreditation of Laboratory Animal Care International. Female 6-10 week-old wild type C57BL/6 and Nrf2−/− mice (Itoh et al, 1997; maintained at Jackson Labs, Bar Harbor, Me.) were maintained on a 12-hour light/dark cycle and given access to food and water ad libitum.
# Compound 12-Ent1 (25 mg/kg) was administered as a single, oral dose in a vehicle of Solutol HS-15/polyethylene glycol/ethanol/water (10/10/10/70) to C57BL/6 (wt) and Nrf2−/− mice. Brain, jejunum, kidney and spleen were collected at 2 or 6 hours after dosing and snap frozen for RNA analysis of Nrf2 target genes.
# For RNA preparation, frozen tissues were placed in 2 mL RNAse-free 96-well blocks with 1.5 ml QIAzol Lysis Reagent (QIAgen) and a 3.2 mm stainless steel bead (BioSpec Products, Bartlesville, Okla.). Tissues were disrupted for four cycles of 45 seconds in a Mini-Beadbeater (Biospec Products). RNA was extracted in chloroform and the aqueous phase was mixed with an equal volume of 70% ethanol. Extracted RNA was applied to RNeasy 96 plates and purified by the spin method according to the manufacturer's protocol (RNeasy 96 Universal Tissue Protocol, QIAgen, Hilden Germany).
# qRT-PCR was performed from total mRNA isolated from tissues and reverse-transcribed into cDNA according to manufacturer protocols (Life Technologies, Carlsbad, Calif.). 20× Taqman target gene mouse primer/probe sets (see table below) were mixed with cDNA and 2× Taqman Universal Master Mix to a final volume of 20 uL. All final reactions contained 100 ng of cDNA, 900 nM of each primer, and 250 nM TaqMan® probes and were cycled on a QuantStudio™ 12K Flex system (Life Technologies). All samples were measured in triplicate using beta actin as a normalizing gene. Final analysis was performed using the comparative CT method to calculate fold changes and samples were normalized relative to wild type vehicle control at each time point.
# NQO-1 gene = NQO-1 gene induction in spleen of Townes mice; assay type: in vivo, Townes SCD mouse; conditions: Townes SS mice, oral single dose 10 or 50 mg/kg or two doses of 25 mg/kg; at least at the 6 hour time point; FIGS. 10A-10C and 12
# Excerpt: (§2) All animal experiments conformed to the guidance issued by the Biogen Institutional Animal Care and Use Committee and are described in approved protocols. The SCD mouse strain used in the in vivo studies is the Townes SCD mouse [Wu L C, Sun C W, Ryan™, Pawlik K M, Ren J, Townes™. Correction of sickle cell disease by homologous recombination in embryonic stem cells. Blood. 2006, 108(4):1183-8]. […] These mice harboring the sickle cell mutations in the hemoglobin β-globins chain show the presence of sickle cell disease characterized by abnormally low hemoglobin, circulating sickle shaped erythrocytes, varying degrees of damage of internal organs such as spleen, liver, and kidney. Male and female Townes SS mice aged 8 to 12 weeks were used for studies described here. […]
# (§3) Frozen spleens were placed at room temperature. […] Extracted RNA was then quantitated using a Nanodrop and 1 μg of total RNA was converted to cDNA using VILO Mastermix kit according to manufacturer's protocol.
# (§4) cDNA prepared from RNA isolated from tissue samples was used to determine gene expression levels of using Taqman based real time PCR (Life Technologies, ThermoFisher Scientific). […] Results were analyzed using the 7500 software version 2.0.5 and the relative levels of transcripts were measured with GAPDH as the endogenous housekeeping gene control using the 2^−ΔΔCt relative quantification method.
# human astrocytes [3] = test: Cytoprotection of human astrocytes against sodium arsenite; assay type: cell-based; conditions: compound 20 hrs before arsenite, then 22 hrs, FIG. 3
# Procedure: Human astrocytes from ScienCell (cat #1820) were grown in astrocyte medium per supplier's instructions. Cells cultured for no more than two passages were plated in poly-D-lysine coated 96-well plates at 40,000 cells per well for gene transcription experiments and 20,000 cell per well for glutathione and cytoprotection assays. Astrocytes were treated for 20 hrs with test compounds, then the medium was removed and replaced with serum- and supplement-free growth medium with and without 25 μM sodium arsenite. After 22 hrs., cells were washed with PBS, fixed with 4% paraformaldehyde/4% sucrose in PBS, stained with 4′,6-Diamidino-2-phenylindole dihydrochloride (DAPI) and counted by quantitative fluorescence microscopy.
# Nrf2 target genes [4] = test: Gene expression (RT-PCR) in cultured human astrocytes; assay type: cell-based; conditions: human astrocytes treated 20 hours; compared to 0.03% DMSO vehicle; FIGS. 1A to 1D
# Procedure: as §1
# Primary cultures of human spinal cord astrocytes were treated with test compounds for 20 hours. The cells were then rinsed in PBS, lysed, and processed for RNA using Ambion Taqman™ Cells-to-CT kit. The resulting cDNA was stored at −20° C. until analysis by real-time polymerase chain reaction (RT-PCR). The cDNA mixture from Cells-to-CT was diluted 5× before loading into PCR. This yields results similar to using 6 ng of purified cDNA. RT-PCR was performed on Life Technologies QuantStudio platform using OpenArray technique according to manufacturer's protocol using the following Taqman primers: […]
# The comparative CT method was used to calculate fold changes using ThermoFisher Cloud software for PCR analysis. Samples were compared to 0.03% DMSO vehicle control.
# HUDEP cells = test: HbF protein ELISA in cultured HUDEP cells; assay type: cell-based, human; conditions: differentiating HUDEP cells, 72 hours, compared to DMSO; FIG. 8
# Procedure: Human Umbilical Derived Erythroid Cells (HUDEP; from Riken Institute, Japan) were cultured in Stemspan SFEM medium (Stemcell Technologies, Vancouver, Canada) supplemented with erythroid cytokines and growth factors. Compound incubations were performed in HUDEP cells cultured in differentiation media.
# Differentiating HUDEP cells were cultured with increasing concentrations of 12-Ent1 or equivalent DMSO concentrations for 72 hours and the levels of HbF protein was measured using a commercially available ELISA specific for human HbF (Bethyl Laboratories, TX) based on manufacturer's protocol.
# γ-globin gene = γ-globin gene induction in spleen of Townes mice; assay type: in vivo, Townes SCD mouse; conditions: Townes SS mice, oral single dose 10, 25 or 50 mg/kg or two doses of 25 mg/kg; at least at the 24 hour time point; FIGS. 9A-9D and 11
# Excerpt: as §2, §3, §4
# [5] = wild type vs Nrf2−/− mice, 25 mg/kg oral
smiles,measurement,setting,value
"CC(=O)N1CC[C@@H]2C(C)(C)C(=O)C(C#N)=C[C@@]2(C)C1 (single isomer, unassigned) [Compound 12-Ent1]",intracellular glutathione,human astrocytes [1],increases
same,"expression of Akr1b8, Nqo1, Hmox1 and Osgin1 in kidney","Nrf2 target genes [2]; 25 mg/kg single oral dose, 2 hours and 6 hours after dosing, FIGS. 4A to 4D",increases
same,"expression of Akr1b8, Nqo1, Hmox1 and Osgin1 in Jejunum","Nrf2 target genes [2]; 25 mg/kg single oral dose, 2 hours and 6 hours after dosing, FIGS. 5A to 5D",increases
same,"expression of Nqo1, Hmox1 and Osgin1 in spleen","Nrf2 target genes [2]; 25 mg/kg single oral dose, 2 hours and 6 hours after dosing, FIGS. 6A to 6D",increases
same,"expression of Nqo1, Hmox1 and Osgin1 in brain","Nrf2 target genes [2]; 25 mg/kg single oral dose, 2 hours and 6 hours after dosing, FIGS. 7A to 7D",increases
same,Nrf2 dependence of the gene expression increases in Jejunum,Nrf2 target genes [2]; [5],Nrf2-dependent
same,Nrf2 dependence of the gene expression increases in brain,Nrf2 target genes [2]; [5],Nrf2-dependent
same,Nrf2 dependence of the gene expression increases in kidney,Nrf2 target genes [2]; [5],Nrf2-dependent
same,Nrf2 dependence of the gene expression increases in spleen,Nrf2 target genes [2]; [5],Nrf2-dependent
same,NQO-1 gene in spleen,NQO-1 gene,induces
same,protection from oxidative stress-induced cell death caused by 25 μM sodium arsenite,human astrocytes [3],protects cells
same,"transcription of Nrf2 target genes, including GCLC, HMOX1, OSGIN1 and NQO1",Nrf2 target genes [4],induces transcription
same,HbF protein in cultured HUDEP cells,HUDEP cells,induces
same,human γ-globin gene in spleen,γ-globin gene,induces
